This test concerns the target T1, VLA-4 receptor (Homo sapiens, UniProt P05556+P13612).
T1 construct: inflammatory cells that contain the VLA-4 receptor [Jurkat cells; host or cells: Jurkat cells (human T lymphoblastic line)
Description: In vitro binding assay: inhibition of binding of 51Cr-labeled Jurkat cells to solid phase-bound CS-1 compound (SEQ ID NO:1). The class given is cell-based. The protocol:
Binding inhibition is measured here as a concentration of compound that inhibits one-half the binding between a standard number of Jurkat cells and a standard amount of CS-1 compound bound to the surface of a microtiter plate well. Those concentrations are conveniently expressed as IC50 values, smaller numbers indicating a lower concentration required to inhibit 50 percent binding and therefore greater potency. Further specifics of this assay are provided hereinafter.
Jurkat cells (ATCC TIB 152), a human T lymphoblastic line, labeled with ^51 chromium were used to assay in vitro binding inhibition provided by various compounds discussed herein.
The plates were prepared as follows: The 25-mer CS-1 compound (SEQ ID NO:1) dissolved at 0.5-1 μg/ml in a buffer of 0.1M NaHCO3 at pH 9.5 that also contained 10 μg/ml of bovine serum albumin (BSA) or a conjugate of the CS-1 compound linked to ovalbumin (CS-1-OVA) dissolved at 1-2.5 μg/ml in the same buffer was used as the substrate. Each well of the microtiter plates was coated with 50 μl of substrate or buffer alone for controls. The wells were permitted to dry out completely and were then rinsed twice with PBS at pH 7.4. Non-specific binding sites of each well were then blocked using 200 μl per well of RPMI/1 percent BSA for two hours at room temperature.
Jurkat cells (3-5×10^6 cells) were placed into a 15 ml Falcon™ round-bottom tube with a cap. The tube was centrifuged, and the extra medium was then removed.
Two hundred microliters of a ^51 Cr labeling solution were added to the centrifuged cells and maintained in contact with the cells for 90-120 minutes in a warm room. […] Longer contact times provide a greater amount of labeling but lower cell viability.
The labeled cells are washed with (i) complete medium, (ii) 1 mM EDTA/PBS and then (iii) RPM1/1 percent BSA free of serum components. The cells are centrifuged after each washing. The cells are finally resuspended in serum-free RPMI/1 percent BSA at a concentration of 1×10^6 viable cells/ml, which provides a concentration that is diluted by one-half in the assay.
Inhibitor compounds are prepared as stock solutions at 20 mg/ml in DMSO in 1.5 ml cryogenic screwcap vials, and were stored at -70° C. Using Flow™ round-bottom or V-bottom microtiter plates, the inhibitor compounds were prepared at twice the assay concentration in RPMI/1 percent BSA at 60 μl/well.
Four initial dilutions were typically used.
The ^51 Cr-labeled cells ([…] at 60 μl/well) were then admixed with the diluted compound solutions. The admixtures were maintained at room temperature (about 22° C.) for 30 minutes.
One hundred microliters of each inhibitor compound/cell admixture were transferred to the substrate-coated wells. This was done in triplicate for each dilution. The resulting plates were incubated for 30 minutes at 37° C. and then washed gently three times with RPMI/1 percent BSA at 200 μl/well. Binding was observed microscopically, particularly after the second wash.
The bound cells were then lysed by the addition of a 0.5 percent solution of sodium dodecylsulfate in water at 100 μl/well. The resulting solutions were then processed for counting and calculation of IC50 values following usual procedures.
The data of Table 1 are normalized to the binding of SEQ ID NO:3. […] Multiple assays for the same compound were averaged.

Setting [1] is: binding inhibition potency (IC50) normalized to standard compound of SEQ ID NO:3 = 1, multiple assays averaged, about one-tenth or less assigned zero.
Setting [2] is: prodrug compounds, potency before enzymatic conversion to active form, relative to SEQ ID NO:3 = 1.

Square brackets hold non-standard residues; d marks the D form. Peptide text beside a SMILES is read from it. * marks the point of attachment. NHOctadecyl = CCCCCCCCCCCCCCCCCCN*; Cya = N[C@@H](CS(=O)(=O)O)C(=O)O; Cha = N[C@@H](CC1CCCCC1)C(=O)O; Phg = N[C@H](C(=O)O)c1ccccc1; X8 = CCCCCCCCCCCCCCCCCCO*; Piperidide = C1CCN(*)CC1; X7 = O=C(CO*)OCc1ccccc1; NHDecyl = CCCCCCCCCCN*; PhAc = O=C(Cc1ccccc1)*; ODecyl = CCCCCCCCCCO*; X1 = CCCCCCCCCCCCCCO*; X4 = CCN(CC)C(=O)CO*; Bz = O=C(c1ccccc1)*; OBn = c1ccc(CO*)cc1; X5 = CCCCCCCCCCCCO*; Ahx = NCCCCCC(=O)O; X6 = O=C(O)CO*

T1 sequence (P13612 34-1032): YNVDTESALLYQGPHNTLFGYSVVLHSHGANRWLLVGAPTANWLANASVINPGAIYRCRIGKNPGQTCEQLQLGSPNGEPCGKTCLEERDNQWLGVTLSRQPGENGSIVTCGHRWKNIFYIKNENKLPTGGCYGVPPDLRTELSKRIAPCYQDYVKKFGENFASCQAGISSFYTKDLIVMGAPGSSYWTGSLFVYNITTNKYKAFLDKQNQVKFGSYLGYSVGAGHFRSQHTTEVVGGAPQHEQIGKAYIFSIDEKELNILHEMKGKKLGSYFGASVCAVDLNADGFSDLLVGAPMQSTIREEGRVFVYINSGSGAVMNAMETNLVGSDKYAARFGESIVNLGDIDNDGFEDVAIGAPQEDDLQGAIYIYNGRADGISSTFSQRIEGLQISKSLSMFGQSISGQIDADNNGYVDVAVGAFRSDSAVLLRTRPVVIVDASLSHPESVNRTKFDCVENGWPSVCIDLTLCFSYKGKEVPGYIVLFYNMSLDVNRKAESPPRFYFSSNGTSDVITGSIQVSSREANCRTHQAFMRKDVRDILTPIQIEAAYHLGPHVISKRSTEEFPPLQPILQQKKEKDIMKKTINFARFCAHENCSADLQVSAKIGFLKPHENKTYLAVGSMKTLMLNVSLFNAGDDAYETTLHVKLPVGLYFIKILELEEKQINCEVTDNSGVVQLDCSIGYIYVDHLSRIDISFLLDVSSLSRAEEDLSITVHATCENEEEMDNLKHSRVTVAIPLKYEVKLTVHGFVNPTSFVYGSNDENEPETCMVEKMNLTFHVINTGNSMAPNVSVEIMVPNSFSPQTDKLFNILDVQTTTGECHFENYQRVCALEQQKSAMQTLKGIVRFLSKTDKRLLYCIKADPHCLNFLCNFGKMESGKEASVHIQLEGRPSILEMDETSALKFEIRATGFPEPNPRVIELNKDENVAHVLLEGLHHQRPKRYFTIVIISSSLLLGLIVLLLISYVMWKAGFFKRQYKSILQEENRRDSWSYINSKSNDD
T1 sequence (P05556 21-798): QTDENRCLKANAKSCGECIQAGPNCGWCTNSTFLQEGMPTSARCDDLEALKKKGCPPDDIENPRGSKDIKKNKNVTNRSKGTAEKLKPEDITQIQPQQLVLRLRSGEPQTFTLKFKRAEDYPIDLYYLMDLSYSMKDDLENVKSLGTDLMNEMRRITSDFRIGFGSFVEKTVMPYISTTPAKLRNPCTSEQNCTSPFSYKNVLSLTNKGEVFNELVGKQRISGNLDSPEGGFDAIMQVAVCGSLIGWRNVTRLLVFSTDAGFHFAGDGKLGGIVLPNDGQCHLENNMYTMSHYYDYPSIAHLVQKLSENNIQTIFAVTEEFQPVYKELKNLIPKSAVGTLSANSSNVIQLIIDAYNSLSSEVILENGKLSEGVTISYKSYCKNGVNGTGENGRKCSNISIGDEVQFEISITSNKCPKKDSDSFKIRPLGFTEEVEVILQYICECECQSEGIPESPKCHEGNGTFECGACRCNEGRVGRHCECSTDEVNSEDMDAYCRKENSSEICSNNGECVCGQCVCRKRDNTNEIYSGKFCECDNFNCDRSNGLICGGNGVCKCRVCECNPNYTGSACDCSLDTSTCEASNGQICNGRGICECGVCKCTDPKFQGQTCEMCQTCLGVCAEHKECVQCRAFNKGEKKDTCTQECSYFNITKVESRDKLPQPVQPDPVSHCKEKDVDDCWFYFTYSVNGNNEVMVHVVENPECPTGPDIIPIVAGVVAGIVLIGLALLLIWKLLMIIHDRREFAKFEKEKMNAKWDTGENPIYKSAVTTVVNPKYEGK

With `NC(=O)[C@H]1CCCN1C(=O)[C@H](Cc1ccccc1)NC(=O)[C@H](CC(=O)O)NC(=O)[C@H](CC1CCCCC1)NC(=O)c1ccccc1` [896.31] (Bz-[Cha]DF[dP]-NH2), under setting [1], the “Relative Potency” value stood at 11.

`CC(C)C[C@H](NC(=O)c1ccccc1)C(=O)N[C@@H](CC(=O)O)C(=O)N[C@H](C(=O)N1CCC[C@H]1C(N)=O)C(C)C` [896.35]: the “Relative Potency” value under setting [1] is 16.

In the case of `CC(C)C[C@H](NC(=O)Cc1ccccc1)C(=O)N[C@@H](CS)C(=O)N[C@@H](Cc1ccccc1)C(=O)N1CCC[C@@H]1C(N)=O` [896.59] (PhAc-LCF[dP]-NH2), the “Relative Potency” value under setting [1] was 0.

On to `CC(C)C[C@H](NC(=O)Cc1ccccc1)C(=O)N[C@@H](CC(=O)O)C(=O)N[C@H](C(=O)N1CCC[C@@H]1C(N)=O)c1ccccc1` [896.69] (PhAc-LD[Phg][dP]-NH2), for which the “Relative Potency” value under setting [1] is reported as 61.

Turning to `CC(C)C[C@H](NC(=O)c1ccccc1)C(=O)N[C@@H](CC(=O)O)C(=O)N[C@H](C(=O)N1CCC[C@@H]1C(N)=O)C(C)C` [926.02], under setting [1], the “Relative Potency” value is reported as 9.6.

Take `O=C(O)C[C@H](NC1CCN(C(=O)Cc2ccccc2)CC1)C(=O)N[C@@H](Cc1ccccc1)C(=O)N1CCCC1` [992.01]: under setting [1], the “Relative Potency” value was found to be 0.

On to `CC(C)C[C@H](NC(=O)Cc1ccccc1)C(=O)N[C@@H](CC(=O)O)C(=O)N[C@@H](Cc1ccccc1)C(N)=O` [997.12] (PhAc-Leu-Asp-Phe-NH2), for which the “Relative Potency” value under setting [1] is recorded as “.48”.

Turning to `CC(C)C[C@H](NC(=O)Cc1ccccc1)C(=O)N[C@@H](CC(=O)O)C(=O)NC1Cc2ccccc2N(CCN2CCOCC2)C1=O` (stereo partly shown) [997.18], the “Relative Potency” value under setting [1] is listed as 20.

As for `CC(C)C[C@H](NC(=O)Cc1ccccc1)C(=O)NC(CC(=O)O)(CC(=O)O)C(=O)N[C@@H](Cc1ccccc1)C(=O)N1CCCCC1` [1026.01], the “Relative Potency” value under setting [1] amounted to 0.

In the case of `CC(C)C[C@H](NC(=O)Cc1ccccc1)C(=O)NC(C(=O)O)C(=O)N[C@@H](Cc1ccccc1)C(=O)N1CCCCC1` (stereo partly shown) [1026.02], the “Relative Potency” value under setting [1] turned out to be 0.

Turning to `CC(C)C[C@H](NC(=O)Cc1ccccc1)C(=O)N[C@@H](CS(=O)(=O)O)C(=O)N[C@@H](Cc1ccccc1)C(=O)N1CCCCC1` [1026.06] (PhAc-Leu-[Cya]-Phe-Piperidide), the “Relative Potency” value under setting [1] is on record as 0.

Regarding `CC(C)C[C@H](NC(=O)Cc1ccccc1)C(=O)N[C@@H](CP(=O)(O)O)C(=O)N[C@@H](Cc1ccccc1)C(=O)N1CCCCC1` [1026.07], the “Relative Potency” value under setting [1] was found to be 0.

Regarding `CC(C)C[C@H](NC(=O)Cc1ccccc1)C(=O)N[C@@H](CS(N)(=O)=O)C(=O)N[C@@H](Cc1ccccc1)C(=O)N1CCCCC1` [1026.08], the “Relative Potency” value under setting [1] turned out to be 0.

Consider `CC(C)CN(CC(=O)Nc1ccccc1)C(=O)CN(CC(=O)O)C(=O)CN(Cc1ccccc1)C(=O)C1CCCC1` [1032.02], for which the “Relative Potency” value under setting [1] is reported as “.63”.

For the molecule `CC(C)C[C@@H](CN[C@@H](CC(=O)O)C(=O)N[C@@H](Cc1ccccc1)C(=O)N1CCCCC1)NC(=O)Cc1ccccc1` [1041.01], the “Relative Potency” value under setting [1] is listed as 0.

As to `CC(C)C[C@H](NC(=O)Cc1ccccc1)C(=O)N[C@@H](CC(=O)O)C(=O)N1C(=O)N(Cc2ccccc2)C(=O)[C@H]1Cc1ccccc1` [1047.07], the “Relative Potency” value under setting [1] was “.38”.

Turning to `CC(C)C[C@H](NC(=O)Cc1ccccc1)C(=O)N[C@@H](CC(=O)O)C(=O)N1C(=O)N(Cc2ccccc2)C(=O)[C@@H]1Cc1ccccc1` [1047.08], the “Relative Potency” value under setting [1] is listed as “.38”.

In the case of `CC(C)C[C@H](NC(=O)Cc1ccccc1)C(=O)N[C@@H](CC(=O)O)C(=O)N[C@@H](Cc1ccccc1)C(=O)NCCCO` [1051.05], under setting [1], the “Relative Potency” value is 25.

As to `NC(=O)[C@H]1CCCN1C(=O)[C@H](Cc1ccccc1)NC(=O)[C@H](CC(=O)O)NC(=O)CCCCC1CCSS1` (stereo partly shown) [1056.09], the “Relative Potency” value under setting [1] is on record as 1.1.

For the molecule `O=C(O)CC(C(=O)N[C@@H](Cc1ccccc1)C(=O)N1CCCCC1)N1CC[C@H](NC(=O)Cc2ccccc2)C1=O` (stereo partly shown) [1057.01], the “Relative Potency” value under setting [1] was “.88”.

As for `CC(C)C[C@H](NC(=O)Cc1ccccc1)C(=O)N[C@@H](CC(=O)O)C(=O)NC1CCCCN(CC(N)=O)C1=O` (stereo partly shown) [1057.06], the “Relative Potency” value under setting [1] is given as 97.

As for `CC(C)C[C@H](NC(=O)Cc1ccccc1)C(=O)N[C@@H](CC(=O)OCC(=O)OCc1ccccc1)C(=O)N[C@@H](Cc1ccccc1)C(=O)N1CCC[C@@H]1C(N)=O` [1067.01] (PhAc-LD(X7)F[dP]-NH2), under setting [2], the “Relative Potency” value is recorded as “.97”.

With `CC(C)C[C@H](NC(=O)Cc1ccccc1)C(=O)N[C@@H](CC(=O)OCC(=O)O)C(=O)N[C@@H](Cc1ccccc1)C(=O)N1CCC[C@@H]1C(N)=O` [1067.02] (PhAc-LD(X6)F[dP]-NH2), the “Relative Potency” value under setting [2] is given as “.81”.

Regarding `CCCCCCCCCCCCCCCCCCNC(=O)CCCCCNC(=O)[C@@H]1CCCN1C(=O)[C@H](Cc1ccccc1)NC(=O)[C@H](CC(=O)O)NC(=O)[C@H](CC(C)C)NC(=O)Cc1ccccc1` [1068.01, phenylacetyl-Leu-Asp-Phe-Pro-NH(CH2)5 C(O)NHC18 H37] (PhAc-LDFP[Ahx]-NHOctadecyl), the “binding inhibition, in words (compared with standard 10-mer of SEQ ID NO:3 or other compounds)” value was “binding inhibition similar to that exhibited by the standard 10-mer compound of SEQ ID NO:3”. Further, under setting [2], the “Relative Potency” value is recorded as “.91”.

For the molecule `CCCCCCCCCCNC(=O)[C@@H]1CCCN1C(=O)[C@H](Cc1ccccc1)NC(=O)[C@H](CC(=O)O)NC(=O)[C@H](CC(C)C)NC(=O)Cc1ccccc1` [1068.04] (PhAc-LDFP-NHDecyl), the “Relative Potency” value under setting [2] was determined as 2.13.

Consider `CCCCCCCCCCCCCCCCCC(=O)OC1CCN(C(=O)[C@H](Cc2ccccc2)NC(=O)[C@H](CC(=O)O)NC(=O)[C@H](CC(C)C)NC(=O)Cc2ccccc2)CC1` [1068.05], for which the “Relative Potency” value under setting [2] is recorded as “.63”.

As for `CCCCCCCCCC(=O)OC1CCN(C(=O)[C@H](Cc2ccccc2)NC(=O)[C@H](CC(=O)O)NC(=O)[C@H](CC(C)C)NC(=O)Cc2ccccc2)CC1` [1068.06], the “Relative Potency” value under setting [2] is listed as “.63”.

Take `CC(C)C[C@H](NC(=O)Cc1ccccc1)C(=O)N[C@@H](CC(=O)OCc1ccccc1)C(=O)N[C@@H](Cc1ccccc1)C(=O)N1CCC[C@@H]1C(N)=O` [1068.07] (PhAc-LD(OBn)F[dP]-NH2): under setting [2], the “Relative Potency” value was determined as 0.

Turning to `CCCCCCCCCCOC(=O)C[C@H](NC(=O)[C@H](CC(C)C)NC(=O)Cc1ccccc1)C(=O)N[C@@H](Cc1ccccc1)C(=O)N1CCC[C@@H]1C(N)=O` [1068.09] (PhAc-LD(ODecyl)F[dP]-NH2), the “Relative Potency” value under setting [2] was determined as 0.

With `CCCCCCCCCCCCOC(=O)C[C@H](NC(=O)[C@H](CC(C)C)NC(=O)Cc1ccccc1)C(=O)N[C@@H](Cc1ccccc1)C(=O)N1CCC[C@@H]1C(N)=O` [1068.10] (PhAc-LD(X5)F[dP]-NH2), under setting [2], the “Relative Potency” value came to 0.

As for `CCCCCCCCCCCCCCOC(=O)C[C@H](NC(=O)[C@H](CC(C)C)NC(=O)Cc1ccccc1)C(=O)N[C@@H](Cc1ccccc1)C(=O)N1CCC[C@@H]1C(N)=O` [1068.11] (PhAc-LD(X1)F[dP]-NH2), under setting [2], the “Relative Potency” value came out at 0.

Consider `CCCCCCCCCCCCCCCCCCOC(=O)C[C@H](NC(=O)[C@H](CC(C)C)NC(=O)Cc1ccccc1)C(=O)N[C@@H](Cc1ccccc1)C(=O)N1CCC[C@@H]1C(N)=O` [1068.12] (PhAc-LD(X8)F[dP]-NH2), for which, under setting [2], the “Relative Potency” value is listed as 0.

As for `CCN(CC)C(=O)COC(=O)C[C@H](NC(=O)[C@H](CC(C)C)NC(=O)Cc1ccccc1)C(=O)N[C@@H](Cc1ccccc1)C(=O)N1CCC[C@@H]1C(N)=O` [1068.13] (PhAc-LD(X4)F[dP]-NH2), the “Relative Potency” value under setting [2] is on record as 0.
